Source: US20200237909A1, “METHODS OF TREATING OR PREVENTING BREAST CANCER METASTASES USING ANTIBODIES TO JAGGED1 AND CHEMOTHERAPEUTIC AGENTS” (The Trustees of Princeton University, priority 2017, published 2020)

Experiments:
MSCs = assay: Stress inducers/inhibitors: Jagged1 expression and ROS production in MSCs; assay type: cell-based, mouse
Text: Next, which signaling pathway is responsible for Jagged1 induction after chemotherapy in osteoblast lineage cells was investigated. Chemotherapy generates many stress responses in cells, including endoplasmic reticulum stress (ER stress), and oxidative stress. Some of the stress conditions have been associated with the regulation of Jagged1 expression (Paul et al., 2014). Several treatments were used to mimic or inhibit these stress responses and then Jagged1 mRNA and protein levels were analyzed within the cells.
293T, H29-Clone #7, MC3T3-E1 Clone #4(denoted as MC3T3 for abbreviation thereafter), MCF7TR, mouse mesenchymal stromal cell (MSC, isolated from BALB/c), 4T1.2, SCP28, SCP28-Vector and -Jagged1 cells, SCP28, RAW264.7, and SUM1315-M1B1 cells were cultured according to American Type Culture Collection instructions and the inventors' previous studies (Ell et al., 2013; Ren et al., 2008; Sethi et al., 2011; Zheng et al., 2014). MSC cells were derived previously and were cultured in DMEM supplemented with 10% FBS, 30 ng/ml bFGF, 100 U/ml penicillin, and 100 μg/ml streptomycin (Ren et al., 2008). All plasmids were transfected into different cell lines using Lipofectamine 2000 following the manufacturer's manual (Life Technologies, CA, USA). To generate stable cell lines, a pLEX-MCS based lentivirus vector or a pMSCV-hygro based retrovirus vector was used in our study. Lentiviruses were packaged in HEK293T cells while retroviruses were packaged by using H29 cell line. Conditional media from these packaging cells containing viruses were collected 2 days and 3 days after transfection. Recipient cell lines were exposed to conditional media containing viruses supplemented with 2 μg/mL Polybrene for 48 h. Infected cells were selected with puromycin or hygromycin to generate stable expressing cell lines. 293T and H29clone #7 are cell lines from female humans. All other cancer cell lines are breast cancer cell lines from either female human or mouse.

[1] = test system: Jagged1 expression in osteoblast cells; assay: Jagged1/Alp immunostaining of hind limb bones after cisplatin; assay type: in vivo, nude mice; conditions: 48 hours after treatment
Method: FIG. 5. Chemotherapy induces Jagged1 expression in osteoblast lineage cells. (A) Jagged1 mRNA expression in osteoblast MC3T3-E1-Clone #4 osteoblast cells and mesenchymal stem cells (MSC), HPMECL endothelial cells (endo), RAW264.7 pre-osteoclast cells, and SCP28 and SUM1315-M1B1 breast tumor cells 48 hr post-treatment with 25 nM paclitaxel or 10 μM cisplatin. (B) Athymic nude mice were i.v. injected with PBS or cisplatin and euthanized 48 hr later. Hind limb bones were collected for IF staining against Alp (green) and Jagged1 (red). Nuclei were counter-stained with DAPI (blue). (C-E) Athymic nude mice were treated with either PBS or cisplatin on Day 0. […] BLI imaging and quantification of BLI signal at Day 4. […]
To confirm this finding in vivo, female nude mice were treated with either PBS or cisplatin. […] In the PBS control group, Jagged1-positive cells were rarely detected, and mostly co-localizing with ALP-positive osteoblasts.
Hindlimb bones were excised from mice at the end point of each experiment, immediately after the last BLI time point. […] For quantitative analysis of lesion area, a 10× objective was used to focus on the tumor region of interest and images were acquired using the AxioCamICc3 camera set to an exposure of around 100 ms. Osteoclast number was assessed as multinucleated TRAP+ cells and reported as number/field. […]

SUM1315-M1B1 cells = assay: SUM1315-M1B1 bone metastasis model; assay type: in vivo, athymic nude mice; conditions: Week 4
Text: FIG. 9. 15D11 synergizes with chemotherapy to inhibit bone metastasis in the SUM1315-M1B1 model. (A) Western blot analysis of Jagged1 protein expression level in SUM1315-M1B1, SPC2, SCP28-Vector, and SCP28-Jagged1 cells. β-actin was used as loading control. (B) Schematic representation of the experimental procedure. In brief, SUM1315-M1B1 cells were IC injected into 4-6 weeks female athymic nude mice to generate bone metastases. One week later, mice were randomized into four groups and treated with respective therapeutic agents. Bone metastasis progression was monitored by weekly BLI imaging until the experimental endpoint (4 weeks after injection). (C) Representative BLI and X-ray images of mice in Week 4 right before euthanizing the mice. (D) Quantification of bone metastasis burden each week based on BLI imaging from the experiment. […] (E) Representative H&E staining and TRAP staining images of hind limb bones from experiment in A were shown. Scale bar: 100 μm. […] AU: arbitrary unit. n=10, **p<0.01 by Student's t-test. (G) Quantification of the number of TRAP-positive osteoclasts per field. n=5, **p<0.01 by Student's t-test.
To validate whether the observed synergy of combined treatment can also be observed in other models of bone metastasis beyond the MDA-MB-231 series, the bone metastatic SUM1315-M1B1 cell line was used. […]

N.N.[Cl][Pt][Cl] [cisplatin]
ROS production in MSCs (MSCs): induced ROS production | Jagged1 expression (immunostaining, Alp positive cells) [1]: much stronger Jagged1 expression

CC(=O)O[C@H]1C(=O)[C@@]2(C)[C@H]([C@H](OC(=O)c3ccccc3)[C@]3(O)C[C@H](OC(=O)[C@H](O)[C@@H](NC(=O)c4ccccc4)c4ccccc4)C(C)=C1C3(C)C)[C@]1(OC(C)=O)CO[C@@H]1C[C@@H]2O [paclitaxel]
bone metastasis burden (BLI signal) (SUM1315-M1B1 cells): minor reduction of BLI signal
